The subject of data set [1] is everted sacs of rat small intestine (jejunum). The data set is described as follows: Paracellular (lucifer yellow) and transcellular (imipramine) marker permeability across everted gut sac with or without TPGS. It counts as in vitro ADME. On the procedure: (§1) The everted sac method was used as previously described ([25]). Everted intestinal sacs were prepared by quickly removing the small intestine from starved rats killed under CO2-anesthesia. The jejunum was excised, flushed through several times with saline solution at room temperature and placed immediately into oxygenated buffer solution at 37°C. Then the intestine was gently everted over a steel rod, filled with fresh oxygenated buffer solution and divided into sacs approximately 4.5 cm in length with silk suture. […] At the defined time points sacs were removed and blotted dry. The sacs were cut open and the serosal fluid was drained into small Eppendorf vial to determine the drug concentration. The area of each sac was calculated closely. Each sac was weighed before and after fluid collection to calculate accurately the volume inside the sac.
(§2) The chromatographic data was acquired by Chromgate 3.1 software from Knauer. Analyses were carried out at ambient temperature on a Chromolith Performance RP-18e (100 mm 4.6 mm i.d., Merck) coupled with a Chromolith RP-18e guard cartridge (5.0 mm 4.6 mm i.d., Merck).

For data set [2] the test system is unchanged. The data set is described as follows: Etoposide mucosal-to-serosal transport across everted gut sac in absence or presence of excipients/P-gp inhibitor. It counts as in vitro ADME. The settings on record: etoposide 25 μg/mL; verapamil 100 μg/mL, TPGS 0.002-0.1 mg/mL, PEG 400 0.05, 0.1 and 0.5% w/v; compared to control. On the procedure: as §1, §2
The test system is the same in data set [3]. The data set is described as follows: LDH release of the everted gut sac. The following applies: TPGS 0.1 mg/mL, PEG 0.5% w/v, 90 min. On the procedure:
The viability and any possible damage of the gut were evaluated by measuring the release of the cytosolic enzyme lactic dehydrogenase (LDH) as an indicator of cell damage ([18]). The LDH activity was determined in the incubation media in the absence or presence of the excipients using LDH-P kit from Kimia pajouhan (Tehran, Iran). The results were calculated as U/L/cm^2 of sac area (1 unit reduces 10^-6 mol pyruvate per min at pH of 7.5). The influence of excipients (using the maximum concentrations) on the viability of gut sac was measured at 30, 60 and 90 min and compared to the control group (without adding any excipient).
A general note: LDH in the medium is a marker of cell lysis.

“Also recorded” adds a separate entry of the source.

With Lucifer yellow, the “Permeability of lucifer yellow” value is reported as 9.3 ± 0.03 × 10^-6 cm/s in data set [1] (in absence of TPGS) and 9.65 ± 0.6 × 10^-6 cm/s in data set [1] (in presence of TPGS 0.1 mg/mL).
PEG 400: in data set [2], the “Effect on absorptive transport/permeability of etoposide (in words)” value is recorded as “no effect; also recorded: not affected”. The “LDH release in presence of excipient versus control” value in data set [3] is “not notably changed”.

The record behind these values is publication PMC3813364 (Iranian Journal of Pharmaceutical Research : IJPR, 2013).
